Assay [1] has as its system mice, carrageenan-induced foot pad edema. The experiment in a line: Carrageenan-induced foot-pad edema test. Format: in vivo, mouse. Conditions: 4 h after carrageenan; peptides 250 μg i.p., DEX 25 μg i.p., 30 min before; FIGS. 17A-17C. A digest of the protocol: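 Mice received peptide 250 μg i.p. (DMSO/0.9% NaCl vehicle) 30 min before intradermal injection of 50 μl 2% carrageenan into the hind foot pad; dexamethasone 25 μg i.p. as reference. Foot-pad thickness measured by spring caliper at 2, 3 and 4 h; mean increase in mm ±SE, 5 mice/group.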

The test system of assay [2] is LPS-induced TNF-α production. Format: cell-based. To be noted: for % inhibition vs. DMSO / TNF-α: Table 2A. Here is the method:
Human whole blood was diluted 10-fold with RPMI-1640 medium and distributed to 24-well culture plates in 1 ml aliquots. LPS was added to the culture at a concentration of 1 μg/ml. The studied peptides were used at concentrations of 1, 10 and 100 μg/ml. After overnight incubation, the supernatants were harvested and frozen at −20° C. until cytokine determination. TNF-α activity was determined using a bioassay. Briefly, WEHI 164.13 cells (ATCC CRL 1751) were seeded at a concentration of 2×10^4 cells/well in quadriplicate. Increasing dilutions of the assayed supernatant were mixed with the target cells in the presence of actinomycin D (1 μg/ml). After 20 h of incubation, MTT was added into the wells, and the cultures were incubated for an additional 4 h. […] The detection limit of the assay was about 2.5 pg/ml. One unit of TNF-α activity was defined as an inverse of supernatant dilution where 50% cell death took place. The cultures labeled “Control (−)” contained no LPS. The cultures labeled “Control (LPS)” contained LPS and none of the studied compounds. Statistical analysis was not applied since the data derive from single cultures (wells).

In assay [3] the test system is mice, carrageenan air pouch. The experiment in a line: Carrageenan air-pouch test (exudate cell number). Format: in vivo, mouse. Conditions: peptides 100 μg i.p. one hour before carrageenan, 24 h; FIGS. 18A-18B. Here is the method:
In this and the air-pouch test, 1.5 mg peptide was dissolved in 300 μl of DMSO, then in 0.9% NaCl to achieve the desired dose (250 μg/0.2 ml or 100 μg/0.2 ml). Carrageenan (Sigma) was dissolved in 0.9% aqueous NaCl (overnight). 50 μl of 2% carrageenan solution was injected intradermally into hind foot pads. The peptides were given in a single 250 μg dose (0.2 ml) per mouse intraperitoneally (i.p.), 30 min before carrageenan administration. Dexamethasone (DEX) (Dexaven, Polfa, Poland), a reference drug, was given i.p. in dose 25 μg per mouse. Control mice were administered i.p. appropriately diluted solvent (DMSO in aqueous NaCl) instead of peptides. The foot pads of “background” (BG) mice were injected with 50 μl of 0.9% aqueous NaCl. Foot pad edema was measured with a spring caliper, 2 h, 3 h and 4 h after administration of carrageenan. The results are presented in FIGS. 17A, 17B and 17C as mean values of the antigen-specific increase of the foot pad thickness measured in 5 mice in each experimental group and expressed in mm ±SE (only results from measurements 4 h following administration of carrageenan are presented in figures). Statistics: FIG. 17A: Control vs: DEX P=0.0001; 4B8M P=0.0001; P25 NS (P=1.0000); P28 NS (P=1.0000); P31 NS (P=0.0528); P35 P=0.0008 (ANOVA of Kruskal-Wallis); FIG. 17B: Statistics: Control vs: P22 NS (P=1.0000); P26 NS (P=1.0000); P27 P=0.0050; P30 P=0.0004; P33-b NS (P=1.0000); SP00-b P=0.0001; P00S-b NS (P=1.0000) (ANOVA of Kruskal-Wallis); FIG. 17C: Statistics: Control vs: P21 P=0.0147; P23-2 P=0.0083; P24 P=0.0001; P29 NS (P=0.9999); P32 P=0.0001; P33 NS (P=0.6806); P34 NS (P=0.1920) (ANOVA).
Air pouches were formed by subdermal injection into the dorsal region (in a halothane anesthesia) of 5 cm^3 of air (needle 23G x 11/4, 5 ml syringe). On day 3 the air pouches were given an additional 2 ml of air and an inflammatory process was elicited by an intra-pouch injection of 1% of carrageenan in 0.5 ml of 0.9% aqueous NaCl. The peptides were given i.p. at a dose of 100 μg one hour before carrageenan injection into the air pouch. The mice from the “background” (BG) group were given 0.9% aqueous NaCl i.p. and 0.9% aqueous NaCl into the air pouches. Control mice were given appropriately diluted DMSO i.p. and carrageenan into the air pouches. 24 h after carrageenan injection, the mice were sacrificed by cervical dislocation, the air pouches were supplemented with 1 ml of 0.9% aqueous NaCl and the exudates from the air pouches were aspirated using a syringe. The exudates were diluted with 0.9% aqueous NaCl and the cells were counted in a Bürker hemocytometer. Data are presented in FIGS. 18A and 18B as the mean values from 10 mice/group (cell number×10^6 per mouse) ±SE. Then the cells were centrifuged and 0.1 ml of the supernatant was saved for TNF-α determination (see Determination of TNF-α activity, above). The cell pellets were used to perform smears on microscopic glasses, which were stained with Giemsa and May-Grünwald reagents for evaluation of mast cell degranulation. Cell analysis was performed by a histologist using a light microscope and 1000× magnification. The content of intact and degranulated mast cells is given in percentage (mean values from 10 mice/group) ±SE. Statistics: FIG. 18A: BG vs Control P=0.0000; Control vs: DEX P=0.0034; 4B8M P=0.0005; P22 NS (P=0.7275); P26 P=0.0032; P27 NS (P=0.0659); P35 NS (P=1.0000) (ANOVA of Kruskal-Wallis); FIG. 18B: Control vs: P21 NS (P=0.322); P23-2 P=0.0020; P24 P=0.0001; P25 P=0.0418; P28 NS (P=0.3502); P29 NS (P=0.0582); P30 P=0.0006; P31 P=0.0078; P32 P=0.0340; P33 NS (P=0.9993); P34 NS (p=0.0566) (ANOVA).

Where two headings read alike, the source gives them in different places. Non-standard residues stand in square brackets, D forms with d. Residues, ends and D or L forms follow the SMILES beside them. β3hF = N[C@H](CC(=O)O)Cc1ccccc1

With `O=C1C[C@H](Cc2ccccc2)NC(=O)[C@@H]2CCCN2C(=O)[C@@H]2CCCN2C(=O)[C@H](Cc2ccccc2)N1` [I-A] (cyclo(FPP[β3hF])), the “foot pad edema (increase of foot pad thickness), P vs Control” value in assay [1] is listed as 0.0001. The figures for the “% inhibition vs. DMSO” value in assay [2] (compound 1 μg/ml), in assay [2] (compound 10 μg/ml) and in assay [2] (compound 100 μg/ml) were 9.8%, 10.4% and 9.2%, respectively. Also, the TNF-α in assay [2] (compound 1 μg/ml, LPS 1 μg/ml, overnight) was found to be 7364 pg/mL; in assay [2] (compound 10 μg/ml), 7176 pg/mL; in assay [2] (compound 100 μg/ml (DMSO only: 196)), 178 pg/mL. In assay [2] (Table 2B, compound 1 μg/ml), the “% of inhibition vs. DMSO” value worked out at 10.0%. Also, the TNF alpha in assay [2] (Table 2B, compound 1 μg/ml) turned out to be 4097 pg/mL; in assay [2] (Table 2B, compound 10 μg/ml), 4416 pg/mL; in assay [2] (Table 2B, compound 100 μg/ml (DMSO only: 854)), 979 pg/mL. Moreover, the “air pouch exudate cell number, P vs Control” value in assay [3] turned out to be 0.0005.

Values taken from patent US10238713B2, “Cyclic tetrapeptides and therapeutic applications thereof” (LODZ UNIVERSITY OF TECHNOLOGY, priority 2010, dated 2019).
